The IC50 is the point on the concentration scale where inhibition reaches its midpoint.

We go through 7 compounds from patent US20130065914A1, “HALOGEN OR CYANO SUBSTITUTED THIENO [2,3-D]PYRIMIDINES HAVING MNK1/MNK2 INHIBITING ACTIVITY FOR PHARMACEUTICAL COMPOSITIONS” (BOEHRINGER INGELHEIM INTERNATIONAL GMBH, priority 2010, published 2013).

Counter-ions that a name gives are not always drawn.

The first experiment deals with T1, human Mnk2a (Homo sapiens, UniProt Q9HBH9).
T1 construct: the open reading frames of human Mnk1 and Mnk2a were amplified from cDNA; made in house; host or cells: E. coli BL21
T1 sequence (Q9HBH9 whole entry): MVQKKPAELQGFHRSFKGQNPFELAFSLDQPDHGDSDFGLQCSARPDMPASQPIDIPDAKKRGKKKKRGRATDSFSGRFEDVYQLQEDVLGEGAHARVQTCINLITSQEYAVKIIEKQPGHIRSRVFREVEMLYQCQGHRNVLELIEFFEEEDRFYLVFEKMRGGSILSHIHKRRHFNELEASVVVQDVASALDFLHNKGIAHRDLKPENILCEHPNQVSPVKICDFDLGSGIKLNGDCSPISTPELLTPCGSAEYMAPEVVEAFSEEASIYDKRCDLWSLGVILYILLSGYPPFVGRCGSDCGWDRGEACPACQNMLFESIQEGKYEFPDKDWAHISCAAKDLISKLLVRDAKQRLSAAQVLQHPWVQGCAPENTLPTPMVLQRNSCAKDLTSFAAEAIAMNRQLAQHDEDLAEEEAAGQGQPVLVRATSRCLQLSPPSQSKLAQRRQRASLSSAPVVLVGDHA
In words: Mnk2a in vitro kinase assay (indirect fluorescence polarization). The note with it: assay of example 2a; 20 μM ATP, 2.5 nM pre-activated Mnk2a; read-out: MNK2 Inhibition (IC50). The class given is biochemical. On the procedure:
Assay principle: Inhibitory potency of compounds against Mnk1, Mnk2a and other kinases was assessed with assays based on a format known to those skilled in the art as the indirect (competitive) fluorescence polarization. The assay detection system comprises a small fluorophore-labeled phospho-peptide (termed ligand) bound to a phospho-specific antibody. The product generated by the kinase reaction competes with the ligand for antibody binding. Based on the larger molecular volume of the bound ligand, which results in a lower rotation rate in solution, its emitted light has a higher degree of polarization than the one from the free ligand.
As a source of enzyme, human Mnk1 and human Mnk2a were expressed as GST fusion proteins in E. coli, purified to >80% homogeneity by glutathione affinity chromatography and activated in vitro with pre-activated ERK2. In brief, the open reading frames of human Mnk1 and Mnk2a were amplified from cDNA using the forward/reverse primer pairs
(utilized restriction sites underlined), respectively, and cloned into the BamHI and SalI sites of the vector pGEX-4T1 (Amersham, Sweden, cat. no. 27-4580-01). These constructs allow prokaryotic expression of Mnk1 or Mnk2a as fusion protein with a N-terminal glutathione S-transferase (GST) tag, referred to as GST-Mnk1 or GST-Mnk2a. The following expression and purification procedure was identical for GST-Mnk1 and GST-Mnk2a, referring in general to GST-Mnk, when not distinguishing between the two isoforms. Expression of GST-Mnk was in E. coli BL21 (Merck Biosciences, Germany, cat. no. 69449). Cells were grown in LB-Bouillon (Merck, Germany, cat. no. 1.10285) supplemented with 100 μg/ml ampicillin (Sigma, Germany, cat. no. A9518) at 37° C. When the culture had reached a density corresponding to an A600 of 0.8, an equal volume of ice cold LB/ampicillin was added, the culture transferred to 25° C. and induced for 4 h with 1 mM isopropyl thiogalactoside (IPTG, Roth, Germany, cat. no. 2316.4). Cells harvested by centrifugation were resuspended in 10 ml lysis buffer (50 mM tris(hydroxymethyl)aminomethane hydrochloride (Tris/HCl, Sigma, Germany, cat. no. T5941) pH 7.5, 300 mM sodium chloride (NaCl, Sigma, Germany, cat. no. S7653), 5% (w/v) glycerol (Sigma, Germany, cat. no. G5516), 3 mM DTT dithiotreitol (DTT, Sigma, Germany, cat. no. D9779)) per gram wet weight cell pellet. Lysates were prepared by disruption of cells with a sonifier and subsequent clearing by centrifugation at 38000 g for 45 min at 4° C.
The lysate was applied to a GSTPrep FF 16/10 column (Amersham, Sweden, cat. no. 17-5234-01) equilibrated with lysis buffer. Removal of unbound material was with 3 column volumes (CV) lysis buffer. Elution was with 2 CV of elution buffer (50 mM Tris/HCl pH 7.5, 300 mM NaCl, 5% (w/v) glycerol, 20 mM glutathione (Sigma, Germany, cat. no. G4251)). Peak fractions were pooled and the protein transferred into storage buffer (50 mM Tris/HCl pH 7.5, 200 mM NaCl, 0.1 mM ethylene glycol-bis(2-aminoethylether)-N,N,N′,N′-tetraacetic acid (EGTA, Aldrich, Germany, cat. no. 23, 453-2), 1 mM DTT, 10% (w/v) glycerol, 0.5 M sucrose (Sigma, Germany, cat. no. S0389) by gel filtration on a PD10 desalting column (Amersham, Sweden, cat. no. 17-0851-01). Aliquots were shock frozen in liquid nitrogen and stored at −80° C.
Activation of Mnk1 and Mnk2a was at a concentration of 2.5 μM of either purified GST-Mnk1 or GST-Mnk2a by incubation with 150 nM pre-activated NHis-ERK2 (see ERK2 assay for preparation) and 50 μM adenosine triphosphate (ATP, Sigma, cat. no. A2699) in a buffer comprising 20 mM N-(2-hydroxyethyl)piperazine-N′-(2-ethanesulfonic acid) (HEPES, Fluka, Germany, cat. no 54459)/potassium hydroxide (KOH, Roth, Germany, cat. no 6751.1) pH 7.4, 10 mM magnesium chloride (MgCl2, Sigma, Germany, cat. no. M2670), 0.25 mM DTT, 0.05% (w/v) polyoxyethylene 20 stearylether (Brij 78, Sigma, Germany, cat. no. P4019) (HMDB buffer) for 45 min at 30° C. […]
As to `Cc1c(Br)sc2ncnc(Nc3ccc(F)cc3OC(C)CN)c12` (stereo not shown) [Example 8, [2-(2-Amino-1-methyl-ethoxy)-4-fluoro-phenyl]-(6-bromo-5-methyl-thieno[2,3-d]pyrimidin-4-yl)-amine], the IC50 stood at 11 nM.
As for `Cc1c(Br)sc2ncnc(Nc3ccc(F)cc3OC(C)C)c12` [Example 18, (6-Bromo-5-methyl-thieno[2,3-d]pyrimidin-4-yl)-(4-fluoro-2-isopropoxy-phenyl)-amine], the IC50 worked out at 58 nM.
The same measure, in the same setting: under `Cc1c(Cl)sc2ncnc(Nc3ccc(F)cc3OC(C)CN)c12` (stereo not shown) [Example 13, [2-(2-Amino-1-methyl-ethoxy)-4-fluoro-phenyl]-(6-chloro-5-methyl-thieno[2,3-d]pyrimidin-4-yl)-amine trifluoroacetate] stands 10 nM; under `Cc1c(Cl)sc2ncnc(Nc3ccc(F)cc3OC(C)CNS(C)(=O)=O)c12` (stereo not shown) [Example 15, N-{2-[2-(6-Chloro-5-methyl-thieno[2,3-d]pyrimidin-4-ylamino)-5-fluoro-phenoxy]-propyl}-methanesulfonamide], 9 nM.
`Cc1c(Br)sc2ncnc(Nc3ccc(F)cc3OC(C)CNS(C)(=O)=O)c12` (stereo not shown) [Example 10, N-{2-[2-(6-Bromo-5-methyl-thieno[2,3-d]pyrimidin-4-ylamino)-5-fluoro-phenoxy]-propyl}-methanesulfonamide]: the concentration for half-maximal inhibition (IC50) was 8 nM.
Take `CCOc1cc(C(N)=O)ccc1Nc1ncnc2sc(Cl)c(C)c12` [Example 16.2, 4-(6-Chloro-5-methyl-thieno[2,3-d]pyrimidin-4-ylamino)-3-ethoxy-benzamide]: the IC50 was determined as 16 nM.

The next experiment has as its system Mnk2 (Mnk2a or Mnk2b) or Mnk1.
Assay: not given
To be noted: cell culture cells transfected with Mnk2 (Mnk2a or Mnk2b) or Mnk1; cited from earlier work.
With `Nc1ncnc2n[nH]c(Nc3ccc(F)cc3)c12` [CGP57380], the “reduction of phosphorylated eIF4E” value is “strong reduction”.
